According to ChEMBL document CHEMBL5625183, “Discovery of a novel dual-target inhibitor of CDK12 and PARP1 that induces synthetic lethality for treatment of triple-negative breast cancer” (Eur J Med Chem, 2023):
“And” between values parts separate entries of the source, which are not always exact repeats. Equal entries are not always repeated. The source made the active and inactive calls. The calls are words filed in the database; no cut-off is given here.

What was measured:
MDA-MB-436 [1] = assay: Antiproliferative activity against human MDA-MB-436 cells assessed as inhibition of cell growth incubated for 72 hrs by MTT assay; type: functional, cell-based; settings: MDA-MB-436, 72 h
MDA-MB-231 [2] = assay: cells; settings: Homo sapiens, MDA-MB-231, 72 h
MDA-MB-231 [3] = assay: Synergistic antiproliferative activity against human MDA-MB-231 cells in presence of Olaparib incubated for 24 hrs by MTT assay; type: functional, cell-based
MDA-MB-468 [4] = assay: Antiproliferative activity against human MDA-MB-468 cells assessed as inhibition of cell growth incubated for 48 hrs by MTT assay; type: functional, cell-based; settings: MDA-MB-468, 48 h
[5] = molecular target: T1, Cyclin-dependent kinase 12 (Homo sapiens, UniProt Q9NYV4); assay: Inhibition of CDK12 (unknown origin) at 1 uM in presence of ATP by kinase-glo plus luminescent assay relative to control
Target sequence in this assay (Q9NYV4 whole entry, looked up): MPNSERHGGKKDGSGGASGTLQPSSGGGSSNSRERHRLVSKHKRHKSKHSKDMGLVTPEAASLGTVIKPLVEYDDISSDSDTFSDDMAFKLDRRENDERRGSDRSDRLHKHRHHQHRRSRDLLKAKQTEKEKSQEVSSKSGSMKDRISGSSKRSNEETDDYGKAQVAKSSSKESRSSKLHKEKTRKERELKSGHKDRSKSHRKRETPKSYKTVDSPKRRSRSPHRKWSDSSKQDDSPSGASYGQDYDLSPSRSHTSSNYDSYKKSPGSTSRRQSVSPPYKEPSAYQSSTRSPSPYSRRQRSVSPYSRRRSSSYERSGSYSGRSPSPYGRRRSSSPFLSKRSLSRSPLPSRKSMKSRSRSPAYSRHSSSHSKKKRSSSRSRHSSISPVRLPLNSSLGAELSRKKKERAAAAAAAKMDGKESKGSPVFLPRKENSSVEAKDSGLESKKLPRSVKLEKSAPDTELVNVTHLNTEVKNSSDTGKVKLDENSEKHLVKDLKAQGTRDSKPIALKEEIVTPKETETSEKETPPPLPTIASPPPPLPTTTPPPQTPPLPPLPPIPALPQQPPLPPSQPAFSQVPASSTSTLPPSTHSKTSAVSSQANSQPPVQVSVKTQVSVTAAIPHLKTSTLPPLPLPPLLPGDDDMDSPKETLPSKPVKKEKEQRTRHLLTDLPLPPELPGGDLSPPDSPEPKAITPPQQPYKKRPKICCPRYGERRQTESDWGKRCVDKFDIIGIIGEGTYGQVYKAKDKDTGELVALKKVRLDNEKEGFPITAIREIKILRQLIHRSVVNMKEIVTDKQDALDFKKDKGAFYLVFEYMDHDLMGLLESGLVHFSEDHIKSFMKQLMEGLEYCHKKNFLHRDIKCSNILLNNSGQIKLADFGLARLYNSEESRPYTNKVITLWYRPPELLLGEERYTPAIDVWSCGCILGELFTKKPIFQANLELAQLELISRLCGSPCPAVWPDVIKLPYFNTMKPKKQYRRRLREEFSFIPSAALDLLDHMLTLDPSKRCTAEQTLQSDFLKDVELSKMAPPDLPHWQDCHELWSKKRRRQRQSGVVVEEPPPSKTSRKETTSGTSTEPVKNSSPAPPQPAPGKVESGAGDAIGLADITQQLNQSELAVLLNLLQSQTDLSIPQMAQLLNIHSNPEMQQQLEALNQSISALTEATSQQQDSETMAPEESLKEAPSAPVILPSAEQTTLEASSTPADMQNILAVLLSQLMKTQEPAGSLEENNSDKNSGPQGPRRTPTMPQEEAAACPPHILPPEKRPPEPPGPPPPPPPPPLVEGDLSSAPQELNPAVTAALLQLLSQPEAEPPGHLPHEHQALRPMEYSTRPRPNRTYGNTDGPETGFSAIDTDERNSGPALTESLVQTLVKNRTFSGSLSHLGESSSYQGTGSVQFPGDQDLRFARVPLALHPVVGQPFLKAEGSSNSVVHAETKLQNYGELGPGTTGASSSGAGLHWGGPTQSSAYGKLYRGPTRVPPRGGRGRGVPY

MDA-MB-231 [6] = assay: Antiproliferative activity against human MDA-MB-231 cells assessed as inhibition of cell growth incubated for 48 hrs by MTT assay; type: functional, cell-based; settings: MDA-MB-231, 48 h
MDA-MB-468 [7] = assay: Antiproliferative activity against human MDA-MB-468 cells assessed as inhibition of cell growth incubated for 72 hrs by MTT assay; type: functional, cell-based; settings: MDA-MB-468, 72 h
MDA-MB-436 [8] = assay: Antiproliferative activity against human MDA-MB-436 cells assessed as inhibition of cell growth incubated for 24 hrs by MTT assay; type: functional, cell-based
MDA-MB-436 [9] = assay: Antiproliferative activity against human MDA-MB-436 cells assessed as inhibition of cell growth incubated for 48 hrs by MTT assay; type: functional, cell-based; settings: MDA-MB-436, 48 h
MDA-MB-231 [10] = assay: Antiproliferative activity against human MDA-MB-231 cells assessed as inhibition of cell growth incubated for 24 hrs by MTT assay; type: functional, cell-based; settings: MDA-MB-231, 24 h
MDA-MB-468 [11] = assay: Antiproliferative activity against human MDA-MB-468 cells assessed as inhibition of cell growth incubated for 24 hrs by MTT assay; type: functional, cell-based; settings: MDA-MB-468, 24 h
[12] = Metabolic stability in BALB/c mouse liver microsome assessed as intrinsic clearance in presence of NADPH incubated upto 60 mins by LC-MS/MS analysis; type: ADME; settings: liver microsomes, read-out: CLH
[13] = Metabolic stability in human liver microsome assessed as intrinsic clearance in presence of NADPH incubated upto 60 mins by LC-MS/MS analysis; type: ADME; settings: liver microsomes, read-out: CLH
[14] = Metabolic stability in human liver microsome assessed as half life in presence of NADPH incubated upto 60 mins by LC-MS/MS analysis; type: ADME; settings: liver microsomes
[15] = Metabolic stability in BALB/c mouse liver microsome assessed as half life in presence of NADPH incubated upto 60 mins by LC-MS/MS analysis; type: ADME; settings: liver microsomes
[16] = molecular target: T1, Cyclin-dependent kinase 12; assay: Inhibition of CDK12 (unknown origin) in presence of ATP by kinase-glo plus luminescent assay
Target sequence in this assay (Q9NYV4 whole entry): as the sequence (Q9NYV4 whole entry, looked up) above

[17] = molecular target: Poly [ADP-ribose] polymerase 2 (Homo sapiens, UniProt Q9UGN5); assay: Inhibition of PARP2 (unknown origin) incubated for 1 hr by ELISA analysis
[18] = molecular target: Poly [ADP-ribose] polymerase 1 (Homo sapiens, UniProt P09874); assay: Inhibition of PARP1 (unknown origin) incubated for 1 hr by ELISA analysis
Chain of Poly [ADP-ribose] polymerase 1 (P09874 whole entry): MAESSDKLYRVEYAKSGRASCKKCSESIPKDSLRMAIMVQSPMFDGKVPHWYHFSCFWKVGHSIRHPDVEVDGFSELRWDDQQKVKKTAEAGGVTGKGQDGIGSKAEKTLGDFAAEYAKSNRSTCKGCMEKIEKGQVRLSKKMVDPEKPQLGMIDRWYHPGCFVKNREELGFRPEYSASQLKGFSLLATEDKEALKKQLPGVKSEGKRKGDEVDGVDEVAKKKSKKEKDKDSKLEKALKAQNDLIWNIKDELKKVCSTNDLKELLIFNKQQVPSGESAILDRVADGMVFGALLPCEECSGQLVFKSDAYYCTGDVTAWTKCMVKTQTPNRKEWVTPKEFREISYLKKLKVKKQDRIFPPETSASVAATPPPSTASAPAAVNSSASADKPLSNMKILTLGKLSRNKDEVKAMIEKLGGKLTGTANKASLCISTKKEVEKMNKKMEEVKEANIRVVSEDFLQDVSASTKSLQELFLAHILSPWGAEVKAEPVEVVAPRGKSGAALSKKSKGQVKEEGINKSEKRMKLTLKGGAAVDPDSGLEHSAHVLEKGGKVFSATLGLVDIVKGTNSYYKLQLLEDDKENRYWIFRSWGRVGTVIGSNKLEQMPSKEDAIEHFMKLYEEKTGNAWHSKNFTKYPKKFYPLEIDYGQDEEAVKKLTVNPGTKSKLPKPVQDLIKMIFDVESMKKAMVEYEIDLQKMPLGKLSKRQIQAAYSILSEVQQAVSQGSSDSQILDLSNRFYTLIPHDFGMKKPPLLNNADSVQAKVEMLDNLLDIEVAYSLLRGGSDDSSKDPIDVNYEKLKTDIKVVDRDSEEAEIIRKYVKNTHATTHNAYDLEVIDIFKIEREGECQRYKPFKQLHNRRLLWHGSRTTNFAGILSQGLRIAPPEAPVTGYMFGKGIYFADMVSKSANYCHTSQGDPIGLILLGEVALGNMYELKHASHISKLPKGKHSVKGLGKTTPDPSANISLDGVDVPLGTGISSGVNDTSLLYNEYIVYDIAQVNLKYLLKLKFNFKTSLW

Chain of Poly [ADP-ribose] polymerase 2 (Q9UGN5 whole entry): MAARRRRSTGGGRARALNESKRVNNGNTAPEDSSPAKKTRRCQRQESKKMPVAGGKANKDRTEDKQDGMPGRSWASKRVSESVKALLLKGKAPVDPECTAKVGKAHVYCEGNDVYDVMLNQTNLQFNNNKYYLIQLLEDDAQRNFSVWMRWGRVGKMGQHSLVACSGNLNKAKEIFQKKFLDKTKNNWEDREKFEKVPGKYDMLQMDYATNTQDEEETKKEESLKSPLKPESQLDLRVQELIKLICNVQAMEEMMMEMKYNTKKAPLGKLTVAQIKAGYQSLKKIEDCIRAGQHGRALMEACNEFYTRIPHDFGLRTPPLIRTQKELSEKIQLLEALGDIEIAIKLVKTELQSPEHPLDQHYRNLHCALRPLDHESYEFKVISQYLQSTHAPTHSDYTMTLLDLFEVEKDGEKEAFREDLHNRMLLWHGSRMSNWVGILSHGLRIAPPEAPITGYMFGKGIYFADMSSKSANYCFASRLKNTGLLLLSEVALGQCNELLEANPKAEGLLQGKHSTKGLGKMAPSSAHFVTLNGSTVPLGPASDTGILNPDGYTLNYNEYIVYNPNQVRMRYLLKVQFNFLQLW

IC50 (MDA-MB-436 [1]) | IC50 (MDA-MB-231 [2]) | IC50 (MDA-MB-468 [4]) | inhibition [5] | IC50 (MDA-MB-231 [6]) | IC50 (MDA-MB-468 [7]) | IC50 (MDA-MB-436 [8]; mda-mb-436) | IC50 (MDA-MB-436 [9]) | IC50 (MDA-MB-231 [10]) | IC50 (MDA-MB-468 [11]) | IC50 (MDA-MB-436 [8]; Homo sapiens, MDA-MB-436, 24 h) | IC50 [16] | IC50 [17] | IC50 [18] | SMILES | Activity (MDA-MB-231 [3]) | CLint scaled [12] | CLint scaled [13] | half-life [14] | half-life [15]
6.4 µM | 7.1 µM | 14.4 µM | 98.6% | 17.9 µM | 5.8 µM | 14.3 µM and 4.6 µM | 18.1 µM | – | – | – | – | – | – | CN(C)C/C=C/C(=O)Nc1ccc(C(=O)N2CCC[C@@H](Nc3ncc(Cl)c(-c4c[nH]c5ccccc45)n3)C2)cc1 | Active | – | – | – | –
0.7 µM | 0.8 µM | 1.4 µM | 7% | 1.7 µM | 0.6 µM | – | 1.5 µM | 3.5 µM | 3.4 µM | 4.6 µM | – | – | – | O=C(c1cc(Cc2n[nH]c(=O)c3ccccc23)ccc1F)N1CCN(C(=O)C2CC2)CC1 [OLAPARIB] | – | – | – | – | –
– | – | – | – | – | – | – | – | – | – | – | – | – | – | O=C(c1ccc(F)cc1)C1CCN(CCn2c(=O)[nH]c3ccccc3c2=O)CC1 [KETANSERIN] | – | 185 mL/min/kg | 47.7 mL/min/kg | 33.6 min | 29.4 min
– | – | – | 75.4% | – | – | – | – | 10.2 µM | 12.4 µM | 11.1 µM | 0.344 µM | 0.032 µM | 0.037 µM | NC(=O)c1cccc2[nH]c(NC(=O)c3cccc(C(=O)N4CCC(Nc5ncc(Br)cn5)CC4)c3)nc12 | – | – | – | – | –
– | – | – | 24.3% | – | – | – | – | > 30 µM | > 30 µM | 28.7 µM | > 10 µM | 0.065 µM | 0.071 µM | NC(=O)c1cccc2[nH]c(NC(=O)c3cccc(C(=O)N4CCC(Nc5ncc(F)cn5)CC4)c3)nc12 | – | – | – | – | –
– | – | – | 79.4% | – | – | – | – | 10.3 µM | 10.5 µM | 11.2 µM | 0.269 µM | 0.131 µM | 0.167 µM | NC(=O)c1cccc2[nH]c(NC(=O)c3cccc(C(=O)N4CCC(Nc5ncc(C(F)(F)F)cn5)CC4)c3)nc12 | – | – | – | – | –
– | – | – | 68.3% | – | – | – | – | 15.6 µM | 14.2 µM | 12.6 µM | 0.554 µM | 0.035 µM | 0.043 µM | NC(=O)c1cccc2[nH]c(NC(=O)c3cccc(C(=O)N4CCC(Nc5ncc(Cl)cn5)CC4)c3)nc12 | – | – | – | – | –
